Test results from patent US11401253B2, “16-methyl-oxacyclohexadecan-2-one and 16-methyl-azacyclohexadecan-2-one derivatives as antimicrobial agents” (THE UNIVERSITY OF MONTANA, priority 2017, dated 2022).
Converted amounts (≈) assume the structure as drawn. Where two headings read alike, the source gives them in different places.

What was measured:
Vero cell = test: Cytotoxicity (MTS), Vero cells; type: cell-based, monkey; conditions: Primates, 72 hours exposure
HepG2 = test: Cytotoxicity (MTS), HepG2 cells; type: cell-based; conditions: Homo sapiens, 72 hours exposure
[1] = tested on: non-replicating persistence Mycobacterium tuberculosis (NRP-TB); test: Low oxygen recovery assay (LORA), non-replicating persistence Mtb; type: cell-based; conditions: Mycobacterium tuberculosis, read-out: MIC, LORA
[2] = tested on: Mycobacterium tuberculosis; test: microbe, parasite or virus in culture; conditions: read-out: MIC, MABA
J774 = test: Cytotoxicity (MTS), J774 cells; type: cell-based, murine; conditions: Mus musculus, 72 hours exposure
S. aureus (NE277) = test: Antibiotic testing, methicillin-resistant S. aureus NE277; type: cell-based
Text: (§1) Both the methyl ester and the diacetate derivatives of BPL 76 slightly less but still very strong activity against the same four MRSA strains (Table 11). The activities of compounds BPL 76 and BPL 81 were compared to several known antibiotics against three methicillin-resistant strains of S. aureus [FIG. 6, comparative data provided by Hartford Hospital, Center for Anti-Infective Research and Development (CAIRD)].

MMP-3 = molecular target: T1, MMP-3 (Homo sapiens, UniProt P08254); test: MMP-3 enzyme inhibition assay; type: biochemical
T1 construct: purchased BioMol
Experimental: The two fungi were also co-cultured under controlled conditions. P. fuscum was grown in pure culture in potato dextrose broth (10×400 mL). After 24 h, an agar cube (8 mm^3) impregnated with P. camembertii/clavigerum mycelium was added to each flask and the resulting co-culture was shaken for 6 more days (200 rpm, room temperature). At time of harvest, methanol (50 mL/flask) was added, the mycelia were removed by gravity filtration and the broth was extracted with chloroform (3×2 L). The chloroform was removed in vacuo to yield 663 mg of crude extract. The crude extract was verified to be active in the MMP-3, caspase-1 and caspase-3 enzyme inhibition assays. Enzyme inhibitory activity was determined using specific BioMol enzyme inhibition assay kits for drug discovery as described in Stierle, A; Stierle, D. The Berkeleylactones, Antibiotic Macrolides from Fungal Coculture. J. Nat. Prod. 80, 4, 1150-1160.

S. aureus CAIRD116 = test: Antibiotic testing, methicillin-resistant S. aureus CAIRD116; type: cell-based; conditions: methicillin-resistant strain
Text: as §1

C. albicans = test: Antibiotic testing (MIC), C. albicans; type: cell-based; conditions: Candida albicans; growth inhibition ≥90%; read-out: minimum inhibitory concentration, C. albicans
S. aureus CAIRD148 = test: Antibiotic testing, methicillin-resistant S. aureus CAIRD148; type: cell-based; conditions: methicillin-resistant strain
Text: as §1

S. aureus CAIRD142 = test: Antibiotic testing, methicillin-resistant S. aureus CAIRD142; type: cell-based; conditions: methicillin-resistant strain
Text: as §1

Bacillus subtilis = test: Antibiotic testing (MIC), Bacillus subtilis; type: cell-based; conditions: growth inhibition ≥90%, read-out: minimum inhibitory concentration, Bacillus subtilis
B. anthracis = test: microbe, parasite or virus in culture; type: cell-based; conditions: Bacillus anthracis, read-out: minimum inhibitory concentration, B. anthracis
Candida glabrata = test: Antibiotic testing (MIC), Candida glabrata; type: cell-based; conditions: Nakaseomyces glabratus; growth inhibition ≥90%; read-out: minimum inhibitory concentration, Candida glabrata
[3] = tested on: Staphylococcus aureus (13709); test: Antibiotic testing (MIC), S. aureus 13709; type: cell-based; conditions: growth inhibition ≥90% relative to drug-free controls, read-out: minimum inhibitory concentration, Staphylococcus aureus (13709)
Streptococcus pyogenes = test: Antibiotic testing (MIC), Streptococcus pyogenes; type: cell-based; conditions: growth inhibition ≥90%, read-out: minimum inhibitory concentration, Streptococcus pyogenes
P. aeruginosa = test: Antibiotic testing (MIC), gram negative P. aeruginosa; type: cell-based; conditions: Pseudomonas aeruginosa; read-out: MIC, P. aeruginosa
Experimental: (§2) None of this collection of compounds were active against Gram-negative bacteria
(§3) Additionally, BPL 76 and derivatives were tested against a panel of gram negative bacteria including K. pneumonia, P. aeruginosa and E. coli (Table 12).

K. pneumoniae (10031) = test: Antibiotic testing (MIC), gram negative K. pneumoniae; type: cell-based; conditions: Klebsiella pneumoniae; read-out: MIC, K. pneumoniae (10031)
Experimental: as §2, §3

E. coli (25922) = test: Antibiotic testing (MIC), gram negative E. coli; type: cell-based; conditions: Escherichia coli; read-out: MIC, E. coli (25922)
Experimental: as §2, §3

[4] = tested on: Mycobacterium tuberculosis; conditions: normal (replicating) conditions; known antibiotics
[5] = non-replicating persistence conditions, known antibiotics

T1 sequence (P08254 100-477): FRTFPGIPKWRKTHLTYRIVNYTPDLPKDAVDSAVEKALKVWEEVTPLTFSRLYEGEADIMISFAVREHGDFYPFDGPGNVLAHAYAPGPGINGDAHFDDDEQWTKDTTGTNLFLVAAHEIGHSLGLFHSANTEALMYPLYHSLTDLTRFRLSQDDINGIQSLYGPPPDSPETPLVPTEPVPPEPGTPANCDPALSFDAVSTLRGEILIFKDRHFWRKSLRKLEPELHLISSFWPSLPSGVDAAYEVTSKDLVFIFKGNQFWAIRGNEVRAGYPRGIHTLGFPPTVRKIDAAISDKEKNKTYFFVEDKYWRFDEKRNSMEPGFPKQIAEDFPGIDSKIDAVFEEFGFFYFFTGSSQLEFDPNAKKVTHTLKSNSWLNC

## CO[C@H]1/C=C/O[C@@]2(C)Oc3c(C)c(O)c4c(O)c(c(/C=N/N5CCN(C)CC5)c(O)c4c3C2=O)NC(=O)/C(C)=C\C=C\[C@H](C)[C@H](O)[C@@H](C)[C@@H](O)[C@@H](C)[C@H](OC(C)=O)[C@@H]1C [RMP - Rifampicin, Rifampicin, reference compound]
Vero cell
  IC50: > 100 µg/mL
HepG2
  IC50: > 100 µg/mL
[1]
  MIC: 0.4 µM (≈ 0.329 µg/mL)
[2]
  MIC: > 0.1 µM
J774
  IC50: 95.8 µg/mL (≈ 116 µM)

## COc1nc2ccc(Br)cc2cc1[C@@H](c1ccccc1)[C@@](O)(CCN(C)C)c1cccc2ccccc12 [TMC207, reference compound]
Vero cell
  IC50: > 10 µg/mL
HepG2
  IC50: > 10 µg/mL
[1]
  MIC: 0.1 µM (≈ 0.0556 µg/mL)
[2]
  MIC: > 0.1 µM
J774
  IC50: > 10 µg/mL

## O=[N+]([O-])c1cn2c(n1)OC[C@@H](OCc1ccc(OC(F)(F)F)cc1)C2 [PA824, reference compound]
[1]; [5]
  MIC: 7 µM (≈ 2.51 µg/mL)
[2]
  MIC: 0.2 µM (≈ 0.0719 µg/mL)

## NNC(=O)c1ccncc1 [INH - Isoniazid, Isoniazid, reference compound]
[1]; [5]
  MIC: > 128 µM
[2]
  MIC: 0.5 µM (≈ 0.0686 µg/mL)

## O=C(O)CCC(=O)O[C@H]1CCCCCCCCC[C@@H](CO)OC(=O)/C=C/[C@H]1O [BPL 98, 4-(((5R,6S,16S,E)-5-hydroxy-16-(hydroxymethyl)-2-oxooxacyclohexadec-3-en-6-yl)oxy)-4-oxobutanoic acid]
S. aureus (NE277); Staphylococcus aureus, read-out: antibiotic testing data (MIC), S. aureus (NE277)
  MIC: > 100 µg/mL
S. aureus (NE277); methicillin-resistant strain
  antibiotic testing data (MIC), S. aureus (NE277): >250 µM
MMP-3
  MMP-3 inhibition: weaker inhibitors
S. aureus CAIRD116; Staphylococcus aureus, CAIRD116
  MIC: > 100 µg/mL
S. aureus CAIRD116
  antibiotic testing data (MIC), S. aureus CAIRD116: >250 µM
C. albicans
  MIC: > 100 µg/mL
S. aureus CAIRD148; Staphylococcus aureus, CAIRD148
  MIC: > 100 µg/mL
S. aureus CAIRD148
  antibiotic testing data (MIC), S. aureus CAIRD148: >250 µM
S. aureus CAIRD142; Staphylococcus aureus, CAIRD142
  MIC: > 100 µg/mL
S. aureus CAIRD142
  antibiotic testing data (MIC), S. aureus CAIRD142: >250 µM
Bacillus subtilis
  MIC: > 100 µg/mL
B. anthracis
  MIC: > 100 µg/mL
Candida glabrata
  MIC: > 100 µg/mL
[3]
  MIC: > 100 µg/mL
Streptococcus pyogenes
  MIC: > 100 µg/mL

## CC(=O)O[C@H]1CCCCCCCC[C@H](OC(C)=O)[C@H](OC(C)=O)/C=C/C(=O)O[C@@H]1C [BPL 79 Ac, (2R,3S,12S,13R,E)-2-methyl-16-oxooxacyclohexadec-14-ene-3,12,13-triyl triacetate]
P. aeruginosa
  MIC: > 500 µM
K. pneumoniae (10031)
  MIC: > 500 µM
E. coli (25922)
  MIC: > 500 µM

## COc1c(N2C[C@@H]3CCCN[C@@H]3C2)c(F)cc2c(=O)c(C(=O)O)cn(C3CC3)c12 [MOX - Moxifloxicin, Moxifloxicin, reference compound]
[4]
  MIC, MABA: 0.2 µM (≈ 0.0803 µg/mL)

## Cc1ncc([N+](=O)[O-])n1CCO [MET - Metronidazole, Metronidazole, reference compound]
[1]; [5]
  MIC: 449 µM (≈ 76.8 µg/mL)
